Data on 40 compounds can be found in ChEMBL document CHEMBL3046097, “Synthesis and QSAR analysis of chalcone derivatives as nitric oxide inhibitory agent” (Med Chem Res, 2012).

Structures are written as SMILES. Bounds are passed on as bounds.

In series [1] the test system is RAW264.7. As to the kind of experiment: Anti-inflammatory activity in Mus musculus (mouse) RAW264.7 cells assessed as inhibition of IFN-gamma/LPS-induced NO production after 17 to 20 hr by Griess assay. Format: functional, cell-based. A general note: Nitrite, measured by Griess reagent, commonly stands in for NO production.
Series [2] relates to RAW264.7. As to the kind of experiment: Cytotoxicity against Mus musculus (mouse) RAW264.7 cells assessed as reduction in viable cells at 250 uM after 17 to 20 hr by MTT assay. Format: cell-based. As to conditions: raw264.7, 250 µM.
Series [3] concerns RAW264.7. Nature of the series: Cytotoxicity against Mus musculus (mouse) RAW264.7 cells assessed as reduction in viable cells at 50 uM after 17 to 20 hr by MTT assay. As to conditions: raw264.7, 50 µM. The series is classed as cell-based. (In general: Tetrazolium assays rely on reduction of a dye to a coloured formazan, in cell work by metabolically active cells.)
The subject of series [4] is RAW264.7. Nature of the series: Cytotoxicity against Mus musculus (mouse) RAW264.7 cells assessed as reduction in viable cells at 25 uM after 17 to 20 hr by MTT assay. The series is classed as cell-based. To be noted: raw264.7, 25 µM.

`Cc1cc(C(=O)/C=C/c2ccccc2OCC(=O)O)c(C)o1`: the IC50 in series [1] (read-out: IC50) was no less than 50 µM.
Same read-out and setting: under `O=C(/C=C/c1ccccc1O)c1cccs1` stands 16.2 µM; under `O=C(/C=C/c1cccc(O)c1)c1ccccn1`, 49.5 µM; under `O=C(/C=C/c1cccc(O)c1)c1ccncc1`, no less than 50 µM.
In the case of `O=C(/C=C/c1ccccc1O)c1ccco1`, the figures for the IC50 in series [1] (read-out: IC50) and in series [1] (read-out: pIC50 (converted)) were 19.3 µM and 19.5 µM, respectively.
As for `Cc1ccc(C(=O)/C=C/c2ccco2)o1`, the Activity result in series [2], in series [3] and in series [4] was “Non-toxic” in each case. Besides, the IC50 in series [1] (read-out: IC50) is 21.3 µM; in series [1] (read-out: pIC50 (converted)), 21.4 µM.
`COc1ccc(OC)c(/C=C/C(=O)c2cccs2)c1`: in series [1] (read-out: IC50), the IC50 stood at 38.7 µM.
For `Cc1ccc(C(=O)/C=C/c2ccc([N+](=O)[O-])cc2)o1`, the IC50 in series [1] (read-out: IC50) and in series [1] (read-out: pIC50 (converted)) was 14.5 µM in each case.
As for `Cc1ccc(C(=O)/C=C/c2ccccc2Cl)o1`, the IC50 in series [1] (read-out: IC50) and in series [1] (read-out: pIC50 (converted)) was 17 µM throughout.
For `Cc1ccc(C(=O)/C=C/c2ccccc2O)o1`, the IC50 in series [1] (read-out: IC50) was 5.88 µM; in series [1] (read-out: pIC50 (converted)), 6.92 µM.
As for `COc1cccc(OC)c1/C=C/C(=O)c1ccc(C)o1`, the figures for the IC50 in series [1] (read-out: IC50) and in series [1] (read-out: pIC50 (converted)) were 6.45 µM and 6.46 µM, respectively.
`O=C(/C=C/c1ccccc1O)c1ccncc1`: the IC50 in series [1] (read-out: IC50) came to 31.7 µM.
As for `Cc1ccc(C(=O)/C=C/c2ccccc2F)o1`, the IC50 in series [1] (read-out: IC50) and in series [1] (read-out: pIC50 (converted)) was 12.9 µM throughout.
Take `COc1ccc(/C=C/C(=O)c2ccc(C)o2)c(F)c1`: the IC50 in series [1] (read-out: IC50) was 5.31 µM; in series [1] (read-out: pIC50 (converted)) it was 12.3 µM.
For `COc1cc(OC)c(/C=C/C(=O)c2ccc(C)o2)c(OC)c1` the same measures were 5.62 µM and 5.62 µM.
On the same counts, the results for `Cc1ccc(C(=O)/C=C/c2ccc(F)cc2)o1` are 17 µM and 17 µM.
For `O=C(/C=C/c1ccccc1O)c1ccccn1`, in series [1] (read-out: IC50), the IC50 worked out at 29.9 µM.
For `COc1ccc(OC)c(/C=C/C(=O)c2ccc(Cl)s2)c1`, the IC50 in series [1] (read-out: IC50) amounted to 26 µM.
Take `COc1cccc(/C=C/C(=O)c2ccc(C)o2)c1OC`: the Activity result in series [2], in series [3] and in series [4] was “Toxic” throughout. The IC50 was 2.26 µM in series [1] (read-out: IC50) and 2.24 µM in series [1] (read-out: pIC50 (converted)).
For the compound `COc1cc(O)cc(O)c1C(=O)/C=C/c1ccccc1` [CARDAMOMIN], the IC50 in series [1] (read-out: IC50) was determined as 11.5 µM.
On the same count and under the same terms, the same measure for `O=C(/C=C/c1cccc(O)c1)c1ccc(Cl)s1`: 33.3 µM; for `O=C(/C=C/c1ccc(O)cc1)c1cccs1`: 46.8 µM.
`Cc1ccc(C(=O)/C=C/c2ccc(Cl)cc2)o1`: the IC50 in series [1] (read-out: IC50) and in series [1] (read-out: pIC50 (converted)) was 11.5 µM each time.
As to `O=C(/C=C/c1cccc(O)c1)c1ccco1`, the IC50 in series [1] (read-out: IC50) is 24.8 µM; in series [1] (read-out: pIC50 (converted)), 24.5 µM.
For `Cc1ccc(C(=O)/C=C/c2ccc(O)cc2)o1` the same measures were 16.3 µM and 16.2 µM.
For `COc1ccc(/C=C/C(=O)c2ccc(C)o2)c(OC)c1OC` the same measures were 4.47 µM and 4.47 µM.
For `Cc1ccc(C(=O)/C=C/c2cccc(F)c2)o1` the same measures were 16.1 µM and 16.2 µM.
Take `Cc1ccc(C(=O)/C=C/c2cccc(Cl)c2)o1`: the IC50 in series [1] (read-out: IC50) and in series [1] (read-out: pIC50 (converted)) was 7.76 µM throughout.
`COc1ccc(OC)c(/C=C/C(=O)c2ccco2)c1`: the IC50 was 16 µM in series [1] (read-out: IC50) and 15.8 µM in series [1] (read-out: pIC50 (converted)).
As for `Cc1ccc(C(=O)/C=C/c2ccccc2OCC(=O)O)o1`, the IC50 in series [1] (read-out: IC50) was no less than 50 µM.
On the same count and under the same terms, under `O=C(/C=C/c1ccccc1O)c1ccc(Cl)s1` stands 23.4 µM.
Regarding `Cc1ccc(C(=O)/C=C/c2cccc(O)c2)o1`, the IC50 in series [1] (read-out: IC50) was 9.35 µM; in series [1] (read-out: pIC50 (converted)) it was 9.33 µM.
Regarding `Cc1cc(C(=O)/C=C/c2ccc(O)cc2)c(C)o1`, the IC50 in series [1] (read-out: IC50) was determined as 13.5 µM.
On the same count and under the same terms, under `O=C(/C=C/c1ccc(O)cc1)c1ccncc1` stands no less than 50 µM; under `Cc1cc(C(=O)/C=C/c2cccc(O)c2)c(C)o1`, 7.96 µM.
`COc1ccc(OC)c(/C=C/C(=O)c2ccc(C)o2)c1`: the IC50 in series [1] (read-out: IC50) and in series [1] (read-out: pIC50 (converted)) was 2.51 µM each time.
`COC(=O)[C@@H](N)CCCNC(=N)N[N+](=O)[O-]` [L-NAME]: the IC50 in series [1] (read-out: IC50) was 23.2 µM.
Still for that read-out and setting: the same measure for `Cc1cc(C(=O)/C=C/c2ccccc2O)c(C)o1`: 13.8 µM.
With `O=C(/C=C/c1ccc(O)cc1)c1ccc(Cl)s1`, in series [1] (read-out: IC50), the IC50 was no less than 50 µM.
On to `O=C(/C=C/c1ccc(O)cc1)c1ccco1`, for which the figures for the IC50 in series [1] (read-out: IC50) and in series [1] (read-out: pIC50 (converted)) were 24.9 µM and 25.1 µM, respectively.
